Test results reported in article PMC3932137, “Simple, sensitive and rapid determination of linifanib (ABT-869), a novel tyrosine kinase inhibitor in rat plasma by UHPLC-MS/MS” (Chemistry Central Journal, 2014).

Experiments:
[1] = stability of stock solutions and working solutions; format: physicochemical; conditions: for time stock solutions and working standard stable at refrigerator temperature: refrigerator temperature (below 10°C)
Protocol: (§1) The stability of linifanib in rat plasma during the sample storage and processing conditions was assessed by analyzing six replicates of LQC and HQC. Short-term stability was assessed after keeping the plasma samples at ambient temperature for ∼ 6 h, the freeze–thaw stability was determined after three cycles of freeze-thaw. Post-preparative stability was determined by storing the reconstituted QC samples for ∼ 48 h under autosampler conditions (maintained at 10°C) before being analyzed. Long-term stability was assessed after storage of the test samples at around −80°C for 30 days. The working solutions and stock solutions of linifanib and the IS were also evaluated for stability at room temperature for 12 h and at refrigerator temperature (below 10°C) for 15 days. The samples were considered stable in plasma at each concentration if the deviation from the mean calculated concentration of quality control samples were within ±15%.

[2] = pilot pharmacokinetic study of linifanib in rats (oral); format: in vivo; conditions: male, Wistar albino, plasma, rat, 5 mg/kg oral, single dose
Protocol: After an overnight fasting, all rats received linifanib (5 mg/kg, oral, dissolved in HPMC). Blood samples (approximately 0.5 mL) were collected from the retro-orbital plexus into heparinized microfuge tubes at different time interval after linifanib administration and plasma samples were harvested by centrifuging the blood at 4500 rpm for 8 min and stored frozen at −80 ± 10°C until analysis. The pharmacokinetic parameters: Cmax, Tmax, AUC, t½ and Kel were calculated using WinNonlin software.

[3] = stability of linifanib in rat plasma during sample storage and processing; format: in vitro ADME; conditions: for Accuracy (%) / Mean ± SD concentration found: n = 6
Protocol: as §1

[4] = set-up: method as in PMID 22382879, PMID 19720910; conditions: phase I study, cited from earlier work
[5] = rat plasma, 30 days at −80°C, nominal 1.28 ng/mL
[6] = rat plasma, 30 days at −80°C, nominal 425 ng/mL
[7] = rat plasma, bench top (6 hrs), nominal 1.28 ng/mL
[8] = rat plasma, bench top (6 hrs), nominal 425 ng/mL
[9] = rat plasma, freeze thaw (3 cycle), nominal 1.28 ng/mL
[10] = rat plasma, freeze thaw (3 cycle), nominal 425 ng/mL
[11] = reconstituted QC samples in injector (48 hrs, 10°C), nominal 1.28 ng/mL
[12] = reconstituted QC samples in injector (48 hrs, 10°C), nominal 425 ng/mL

## CCN(CC)CCNC(=O)c1c(C)[nH]c(/C=C2\C(=O)Nc3ccc(F)cc32)c1C [IS, sunitinib]
[1]
  time stock solutions and working standard stable at refrigerator temperature: 15 days
  time stock solutions and working standard stable at room temperature: 12 h

## Cc1ccc(F)c(NC(=O)Nc2ccc(-c3cccc4[nH]nc(N)c34)cc2)c1 [linifanib, N-(4-(3-amino-1H-indazol-4-yl)phenyl)-N'-(2-fluoro-5-methylphenyl)urea]
[2]
  k el: 2.78e-05 s⁻¹
[2]; read-out: average t½ (converted)
  half-life: 6.67 h
[2]; read-out: mean AUC0-8h
  AUC(0-t): 232 ng·h/mL
[2]; read-out: mean peak plasma concentration (Cmax)
  Cmax: 55.1 ng/mL
[2]; read-out: time to peak plasma concentration (Tmax)
  Tmax: 2.5 h
[3]; autosampler maintained at 10°C
  time stable in autosampler: 48 h
[3]; [5]
  Accuracy (%): 98.3%
  Mean ± SD concentration found: 1.26 ± 0.10 ng/mL
[3]; [6]
  Accuracy (%): 90.5%
  Mean ± SD concentration found: 384 ± 20.2 ng/mL
[3]; [7]
  Accuracy (%): 105.0%
  Mean ± SD concentration found: 1.35 ± 0.06 ng/mL
[3]; [8]
  Accuracy (%): 92.7%
  Mean ± SD concentration found: 393 ± 34.8 ng/mL
[3]; [9]
  Accuracy (%): 101.1%
  Mean ± SD concentration found: 1.30 ± 0.10 ng/mL
[3]; [10]
  Accuracy (%): 90.7%
  Mean ± SD concentration found: 385 ± 14.3 ng/mL
[3]; [11]
  Accuracy (%): 110.6%
  Mean ± SD concentration found: 1.42 ± 0.09 ng/mL
[3]; [12]
  Accuracy (%): 107.2%
  Mean ± SD concentration found: 455 ± 19.8 ng/mL
[3]; spiked into rat plasma, around −80°C
  time stable in rat plasma at around −80°C: up to 30 days
[3]; spiked into rat plasma, room temperature
  time stable in rat plasma at room temperature: at least 6.0 h
[3]; spiked into rat plasma, three freeze-thaw cycle
  freeze-thaw stability in rat plasma: stable
[1]
  time stock solutions and working standard stable at refrigerator temperature: 15 days
  time stock solutions and working standard stable at room temperature: 12 h
[4]; across all dose levels
  time to peak plasma concentration: approx. 2 h
[4]
  dose recovered as unchanged in urine: 15%
  oral clearance: 2.7 L/h
  pharmacokinetics (dose and time dependence): dose proportional and time invariant
